The results in this text go back to patent EP4467141A1, “PYRAZOLO-QUINOLINES AS SELECTIVE INHIBITORS OF GENOTOXIC STRESS-INDUCED IKK/NF- KB PATHWAYS FOR CANCER THERAPY” (Max-Delbrück-Centrum für Molekulare Medizin in der …, priority 2023, dated 2024).

Assay in all cases: Kinase panel study
Format in all cases: biochemical
Holding throughout (conditions): read-out: Percentage of inhibition; for inhibition at 1 µM: 1000nM; for inhibition at 10 µM: 10000nM

The target in experiment [1] is T1, EGFR (ErbB1) C797S (Homo sapiens, UniProt P00533, C797S).
T1 construct: purchased Thermo Fisher Scientific
Put shortly:
(§1)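 Percent inhibition of each kinase by the test compound, given at either 1 µM or 10 µM, came from a contracted panel run by ZLyte or Adapta protocol.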

Experiment [2] concerns the target T2, CSNK1A1L (Homo sapiens, UniProt Q8N752).
T2 construct: purchased Thermo Fisher Scientific
T2 sequence (Q8N752 1-337): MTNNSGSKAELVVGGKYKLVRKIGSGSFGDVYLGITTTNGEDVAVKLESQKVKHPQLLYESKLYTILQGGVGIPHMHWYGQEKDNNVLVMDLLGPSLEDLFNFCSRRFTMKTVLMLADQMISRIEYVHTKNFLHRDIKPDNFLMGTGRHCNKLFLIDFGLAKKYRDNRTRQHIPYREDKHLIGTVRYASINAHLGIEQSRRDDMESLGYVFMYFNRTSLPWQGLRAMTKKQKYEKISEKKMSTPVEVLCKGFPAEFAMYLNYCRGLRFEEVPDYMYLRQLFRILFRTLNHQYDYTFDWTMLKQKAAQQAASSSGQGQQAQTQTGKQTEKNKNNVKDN
The procedure, abridged:
as §1

Experiment [3] has as its target T3, ZAP70 (Homo sapiens, UniProt P43403).
T3 construct: purchased Thermo Fisher Scientific
T3 sequence (P43403 1-619): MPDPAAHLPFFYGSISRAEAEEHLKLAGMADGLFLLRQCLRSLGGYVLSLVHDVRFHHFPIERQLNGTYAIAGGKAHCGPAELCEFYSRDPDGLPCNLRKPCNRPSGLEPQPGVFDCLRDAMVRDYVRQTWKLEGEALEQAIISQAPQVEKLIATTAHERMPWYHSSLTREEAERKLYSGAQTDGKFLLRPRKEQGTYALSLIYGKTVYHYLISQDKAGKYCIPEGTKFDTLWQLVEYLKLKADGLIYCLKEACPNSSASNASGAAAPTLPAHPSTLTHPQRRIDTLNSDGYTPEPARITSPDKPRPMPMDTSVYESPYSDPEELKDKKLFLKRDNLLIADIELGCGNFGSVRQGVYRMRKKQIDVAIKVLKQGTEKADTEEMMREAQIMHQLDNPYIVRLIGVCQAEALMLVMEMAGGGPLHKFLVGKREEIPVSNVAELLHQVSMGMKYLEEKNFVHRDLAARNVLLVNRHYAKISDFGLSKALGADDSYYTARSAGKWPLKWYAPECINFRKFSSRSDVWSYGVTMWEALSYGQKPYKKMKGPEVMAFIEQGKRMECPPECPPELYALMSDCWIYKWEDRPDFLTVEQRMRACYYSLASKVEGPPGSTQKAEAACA
Put shortly:
as §1

Experiment [4] deals with T4, CDK9/cyclin T1 (Homo sapiens, UniProt P50750).
T4 construct: purchased Thermo Fisher Scientific
The procedure, abridged: as §1

Experiment [5] addresses T5, SRC (Homo sapiens, UniProt P12931).
T5 construct: purchased Thermo Fisher Scientific
Put shortly:
as §1

Experiment [6] concerns the target T6, AMPK (A2/B1/G3) (Homo sapiens, UniProt P54646).
T6 construct: purchased Thermo Fisher Scientific
Put shortly: as §1

Experiment [7] deals with T7, ABL1 G250E (Homo sapiens, UniProt P00519, G250E).
T7 construct: purchased Thermo Fisher Scientific
The procedure, abridged: as §1

T1 sequence (P00533 25-1210 C797S): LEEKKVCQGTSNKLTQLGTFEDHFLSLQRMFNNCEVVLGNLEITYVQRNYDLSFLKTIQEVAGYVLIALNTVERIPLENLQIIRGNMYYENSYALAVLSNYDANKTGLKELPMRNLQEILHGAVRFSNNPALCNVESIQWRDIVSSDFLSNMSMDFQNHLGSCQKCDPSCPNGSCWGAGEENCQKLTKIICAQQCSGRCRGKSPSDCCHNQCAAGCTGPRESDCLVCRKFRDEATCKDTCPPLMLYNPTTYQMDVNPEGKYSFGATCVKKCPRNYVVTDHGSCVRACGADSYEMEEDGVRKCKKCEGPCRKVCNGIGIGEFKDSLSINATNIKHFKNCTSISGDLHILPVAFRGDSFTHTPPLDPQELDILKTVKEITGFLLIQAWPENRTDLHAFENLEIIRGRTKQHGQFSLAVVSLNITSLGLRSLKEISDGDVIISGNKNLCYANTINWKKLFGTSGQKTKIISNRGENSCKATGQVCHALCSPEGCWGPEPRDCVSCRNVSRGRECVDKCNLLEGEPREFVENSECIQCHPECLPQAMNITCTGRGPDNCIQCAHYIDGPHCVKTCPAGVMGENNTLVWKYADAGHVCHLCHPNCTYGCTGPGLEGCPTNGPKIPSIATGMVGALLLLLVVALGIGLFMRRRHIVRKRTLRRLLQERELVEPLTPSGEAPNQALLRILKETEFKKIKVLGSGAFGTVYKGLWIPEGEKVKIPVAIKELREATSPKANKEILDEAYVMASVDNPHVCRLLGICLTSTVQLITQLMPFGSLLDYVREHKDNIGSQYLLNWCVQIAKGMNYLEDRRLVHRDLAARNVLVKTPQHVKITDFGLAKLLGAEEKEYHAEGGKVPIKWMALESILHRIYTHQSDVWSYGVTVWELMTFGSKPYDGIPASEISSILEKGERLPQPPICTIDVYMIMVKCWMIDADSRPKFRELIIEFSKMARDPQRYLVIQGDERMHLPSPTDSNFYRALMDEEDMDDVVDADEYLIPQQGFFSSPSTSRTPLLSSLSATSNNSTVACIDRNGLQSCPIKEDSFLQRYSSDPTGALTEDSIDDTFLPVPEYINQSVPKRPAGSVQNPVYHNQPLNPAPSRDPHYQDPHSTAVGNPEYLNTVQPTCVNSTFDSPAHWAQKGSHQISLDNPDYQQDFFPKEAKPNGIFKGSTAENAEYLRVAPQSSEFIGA
T4 sequence (P50750 whole entry): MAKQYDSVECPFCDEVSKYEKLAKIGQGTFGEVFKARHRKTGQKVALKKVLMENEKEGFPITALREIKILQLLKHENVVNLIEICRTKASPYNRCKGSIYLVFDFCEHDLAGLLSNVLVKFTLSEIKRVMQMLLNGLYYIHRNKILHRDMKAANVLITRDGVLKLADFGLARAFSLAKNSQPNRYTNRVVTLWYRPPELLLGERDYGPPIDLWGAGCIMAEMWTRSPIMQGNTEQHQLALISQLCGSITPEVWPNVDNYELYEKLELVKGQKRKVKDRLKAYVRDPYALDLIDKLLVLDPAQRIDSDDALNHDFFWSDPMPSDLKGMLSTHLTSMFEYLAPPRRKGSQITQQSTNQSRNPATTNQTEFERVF
T4 sequence (O60563 whole entry partner): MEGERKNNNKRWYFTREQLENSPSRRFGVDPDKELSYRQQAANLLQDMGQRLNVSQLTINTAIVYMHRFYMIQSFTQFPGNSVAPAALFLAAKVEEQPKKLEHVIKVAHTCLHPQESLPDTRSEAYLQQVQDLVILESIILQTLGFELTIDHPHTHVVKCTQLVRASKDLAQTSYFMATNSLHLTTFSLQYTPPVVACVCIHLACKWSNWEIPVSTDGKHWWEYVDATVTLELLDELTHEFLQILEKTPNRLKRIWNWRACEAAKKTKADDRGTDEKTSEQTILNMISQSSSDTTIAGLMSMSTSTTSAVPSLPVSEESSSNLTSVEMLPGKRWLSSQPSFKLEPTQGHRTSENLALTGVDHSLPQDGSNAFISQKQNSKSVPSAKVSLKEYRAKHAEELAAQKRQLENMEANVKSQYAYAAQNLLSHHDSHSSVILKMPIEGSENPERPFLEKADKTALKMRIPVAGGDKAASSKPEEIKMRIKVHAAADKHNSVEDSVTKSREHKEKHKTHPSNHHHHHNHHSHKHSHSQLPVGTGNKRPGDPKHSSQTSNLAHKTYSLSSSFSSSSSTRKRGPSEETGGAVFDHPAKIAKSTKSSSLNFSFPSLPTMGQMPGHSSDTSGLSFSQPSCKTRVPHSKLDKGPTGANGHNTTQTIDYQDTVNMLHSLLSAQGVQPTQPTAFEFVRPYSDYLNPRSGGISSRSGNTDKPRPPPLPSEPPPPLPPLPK
T5 sequence (P12931 whole entry): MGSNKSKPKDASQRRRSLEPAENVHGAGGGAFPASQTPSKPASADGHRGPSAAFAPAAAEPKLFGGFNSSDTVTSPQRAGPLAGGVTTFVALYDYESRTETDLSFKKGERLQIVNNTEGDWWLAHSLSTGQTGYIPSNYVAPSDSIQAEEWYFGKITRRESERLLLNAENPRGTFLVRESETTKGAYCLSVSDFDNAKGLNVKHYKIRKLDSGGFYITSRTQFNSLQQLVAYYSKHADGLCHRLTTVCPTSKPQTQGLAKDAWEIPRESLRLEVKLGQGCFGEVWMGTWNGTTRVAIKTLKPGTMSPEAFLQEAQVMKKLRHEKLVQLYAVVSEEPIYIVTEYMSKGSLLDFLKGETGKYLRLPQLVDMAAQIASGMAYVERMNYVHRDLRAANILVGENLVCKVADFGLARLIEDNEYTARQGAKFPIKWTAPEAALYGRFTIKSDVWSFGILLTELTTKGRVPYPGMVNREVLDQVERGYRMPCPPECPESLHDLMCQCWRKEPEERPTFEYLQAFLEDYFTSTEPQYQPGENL
T6 sequence (P54646 whole entry): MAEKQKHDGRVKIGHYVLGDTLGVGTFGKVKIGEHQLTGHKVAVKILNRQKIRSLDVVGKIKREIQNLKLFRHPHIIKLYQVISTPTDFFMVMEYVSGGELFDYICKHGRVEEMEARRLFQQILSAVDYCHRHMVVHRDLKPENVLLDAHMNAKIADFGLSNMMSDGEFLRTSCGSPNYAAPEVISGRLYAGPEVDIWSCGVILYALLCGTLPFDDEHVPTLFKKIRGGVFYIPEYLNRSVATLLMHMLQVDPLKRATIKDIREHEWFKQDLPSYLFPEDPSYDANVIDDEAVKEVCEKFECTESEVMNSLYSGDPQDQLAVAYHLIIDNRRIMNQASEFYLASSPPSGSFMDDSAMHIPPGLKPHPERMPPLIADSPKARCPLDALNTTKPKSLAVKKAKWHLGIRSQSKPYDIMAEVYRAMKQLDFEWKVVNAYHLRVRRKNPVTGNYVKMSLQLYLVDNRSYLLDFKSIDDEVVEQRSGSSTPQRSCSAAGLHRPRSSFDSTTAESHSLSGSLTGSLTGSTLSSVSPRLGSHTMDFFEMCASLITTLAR
T6 sequence (Q9Y478 whole entry partner): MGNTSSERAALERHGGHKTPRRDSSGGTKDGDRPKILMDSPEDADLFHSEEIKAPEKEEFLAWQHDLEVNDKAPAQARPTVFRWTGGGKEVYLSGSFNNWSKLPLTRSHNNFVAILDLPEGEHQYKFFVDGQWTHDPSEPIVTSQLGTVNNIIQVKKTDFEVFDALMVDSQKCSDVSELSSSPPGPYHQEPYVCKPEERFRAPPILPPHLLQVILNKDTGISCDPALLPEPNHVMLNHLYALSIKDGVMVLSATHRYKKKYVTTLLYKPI
T6 sequence (Q9UGI9 whole entry partner): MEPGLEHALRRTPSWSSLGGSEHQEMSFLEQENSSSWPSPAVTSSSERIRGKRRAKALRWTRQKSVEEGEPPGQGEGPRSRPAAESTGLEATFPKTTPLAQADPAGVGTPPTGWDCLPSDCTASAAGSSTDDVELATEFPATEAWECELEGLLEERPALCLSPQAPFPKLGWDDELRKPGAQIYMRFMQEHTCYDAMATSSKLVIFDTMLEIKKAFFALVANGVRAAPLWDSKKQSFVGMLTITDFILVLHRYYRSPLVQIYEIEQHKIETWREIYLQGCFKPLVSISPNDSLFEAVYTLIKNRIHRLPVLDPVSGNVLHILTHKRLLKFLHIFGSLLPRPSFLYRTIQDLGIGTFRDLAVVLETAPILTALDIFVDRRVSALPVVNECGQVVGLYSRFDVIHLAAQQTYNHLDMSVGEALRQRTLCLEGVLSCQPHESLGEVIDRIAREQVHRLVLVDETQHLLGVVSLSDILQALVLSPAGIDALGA

As usually defined, the inhibition is the drop in the measured response relative to a control, in per cent. On to `COc1ccc2c(c1OC)c(=O)n1c3ccc(O)cc3c3ccnc2c31` [MW01, 5-Hydroxy-10,11-dimethoxy-9H-benzo[c]indolo[3,2,1-ij][1,5]naphthyridin-9-one], for which the inhibition at 1 µM in experiment [1] was 4%; in experiment [2], 1%; in experiment [3], 12%; in experiment [4], 11%; in experiment [5], 0%; in experiment [6], -2%. The inhibition at 1 µM in experiment [7] stood at 9%. Besides, the inhibition at 10 µM in experiment [1] is 11%; in experiment [2] it was 11%; in experiment [3] it was 16%; in experiment [4], 20%; in experiment [5], 16%; in experiment [6], 12%. For the same compound, in experiment [7], the inhibition at 10 µM was found to be 32%.
`COc1ccc2cc3c(N)nn(C(=O)c4cccc(N(C)C)c4)c3nc2c1` [MW05, (3-Amino-7-methoxypyrazolo[3,4-b]quinolin-1-yl)-[3-(dimethylamino)phenyl]methanone]: the inhibition at 1 µM in experiment [1] was 1%; in experiment [2], 1%; in experiment [3], 15%; in experiment [4], 19%; in experiment [5] it was 6%; in experiment [6] it was 0%. In experiment [7], the inhibition at 1 µM was found to be 12%. Besides, the inhibition at 10 µM was -14% in experiment [1]; 1% in experiment [2]; 11% in experiment [3]; 57% in experiment [4]; 3% in experiment [5]; -3% in experiment [6]. In addition, in experiment [7], the inhibition at 10 µM was found to be 0%.
